US20230091225A1, “Bifunctional chimeric heterocyclic compounds for targeted degradation of androgen receptors and use thereof” (HINOVA PHARMACEUTICALS INC., priority 2019, published 2023)
Read-outs that look alike come from different tables or passages of the source.

Tests used:
androgen receptor (AR) [1] = target: T1, androgen receptor (AR) (Homo sapiens, UniProt P10275); assay: Degradation of androgen receptor (AR) protein in VCaP cells by Western blot; type: cell-based; details: percentage of degraded AR at 100 nM, VCaP cells, 16 h
T1 sequence (P10275 1-920): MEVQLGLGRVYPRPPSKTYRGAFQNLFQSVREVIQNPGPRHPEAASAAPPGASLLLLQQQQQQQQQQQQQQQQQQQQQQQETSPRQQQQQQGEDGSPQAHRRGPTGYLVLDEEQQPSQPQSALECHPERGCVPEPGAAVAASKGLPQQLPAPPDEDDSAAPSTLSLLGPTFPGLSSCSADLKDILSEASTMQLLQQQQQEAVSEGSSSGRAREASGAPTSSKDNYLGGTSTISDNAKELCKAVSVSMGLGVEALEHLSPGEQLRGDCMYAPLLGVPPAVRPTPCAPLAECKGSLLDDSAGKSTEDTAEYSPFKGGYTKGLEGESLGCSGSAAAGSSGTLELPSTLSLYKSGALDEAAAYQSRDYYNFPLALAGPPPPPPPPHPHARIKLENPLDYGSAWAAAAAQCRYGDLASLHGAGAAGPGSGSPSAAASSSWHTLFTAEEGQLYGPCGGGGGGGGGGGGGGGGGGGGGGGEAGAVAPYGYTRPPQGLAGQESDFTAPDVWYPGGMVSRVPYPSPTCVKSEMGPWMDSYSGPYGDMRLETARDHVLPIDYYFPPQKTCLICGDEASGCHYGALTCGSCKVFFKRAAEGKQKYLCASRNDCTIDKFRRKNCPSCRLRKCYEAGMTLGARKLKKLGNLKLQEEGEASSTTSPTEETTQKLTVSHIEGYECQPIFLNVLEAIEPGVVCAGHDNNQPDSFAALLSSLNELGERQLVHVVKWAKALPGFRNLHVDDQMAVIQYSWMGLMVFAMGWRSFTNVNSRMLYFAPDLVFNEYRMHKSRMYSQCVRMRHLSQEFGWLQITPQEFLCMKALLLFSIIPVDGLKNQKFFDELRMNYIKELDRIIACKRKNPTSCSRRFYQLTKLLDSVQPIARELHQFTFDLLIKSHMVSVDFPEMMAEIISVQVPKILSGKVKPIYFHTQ
Procedure: Determination of the Degradation Activity of the Compound on Androgen Receptor (AR) Protein by Western Blot
1) VCaP cells were subcultured in cell culture media, and then the cells in good growth condition were seeded in a 12-well plate at 1 ml/well (5×10^5 cells/well), and cultured overnight in a 37° C., 5% CO2 cell incubator. 2) The test compound was prepared into a 10 mM stock solution with dimethyl sulfoxide (DMSO). Prior to use, the solution was diluted 3 times with DMSO. […] of the diluted compound solution was added to the cell culture well (ensuring that the DMSO concentration in the culture system was 0.1%), and two wells were set for each concentration. The plate was gently shaken to mix. In addition, the experiment included negative control wells (containing equal amount of DMSO) and positive control wells. 3) After culturing 16 h. the cells were lysed with RIPA cell lysate, and the protein was extracted. The protein concentration was measured with BCA kit. 5-fold concentrated protein loading buffer was added, and after heated at 100° C. for 5 min. the sample was stored at −20° C. 4) for each well, 30 μg of protein was loaded on polyacrylamide gel for electrophoresis. 5) The protein was transferred from polyacrylamide gel to PVDF membrane, and then 5% skim milk was added to close for 1 h at room temperature. The first antibody (Androgen Receptor (D6F11) XP Rabbit mAb and Anti-β-Actin Rabbit mAb) was added and incubated overnight at 4° C. The membrane was washed with TBST solution three times. 10 min for each time. The secondary antibody (horseradish peroxidase labeled goat […]) was added and incubated at room temperature for 2 h, and then the membrane was washed with TBST solution three times. 10 min for each time.
Finally, ECL chemiluminescence solution was added, and then photos were taken with automatic chemiluminescence instrument to collect pictures for analysis.

androgen receptor (AR) [2] = target: T1, androgen receptor (AR); assay: Degradation of androgen receptor (AR) protein in VCaP cells by ELISA; type: cell-based; details: for Dmax: VCaP
[3] = AR degradation, VCaP cells, 16 h, ELISA, Table 3-1, read-out: DC50
[4] = AR degradation, VCaP cells, 16 h, ELISA, Table 3-1, read-out: Dmax (%)

SMILES: N#Cc1ccc(OC2CCC(NC(=O)c3cnc(N4C[C@@H]5CN(C6CCN(c7cc8c(cc7F)C(=O)N(C7CCC(=O)NC7=O)C8=O)CC6)C[C@@H]5C4)nc3)CC2)cc1Cl (stereo partly drawn) [Compound 220, N-((1s,4S)-4-(3-chloro-4-cyanophenoxy)cyclohexyl)-2-((3aR,6aS)-5-(1-(2-(2,6-dioxopiperidin-3-yl)-6-fluoro-1,3-dioxoisoindolin-5-yl)piperidine-4-yl)hexahydropyrrolo[3,4-c]pyrrol-2(1H)-yl)pyrimidine-5-carboxamide]
- % degradation (androgen receptor (AR) [1]): D (<25%)

SMILES: N#Cc1ccc(O[C@H]2CC[C@H](NC(=O)c3ccc(N4CC5(CCN(CC6CCN(c7cc8c(cc7F)C(=O)N(C7CCC(=O)NC7=O)C8=O)CC6)CC5)C4)nn3)CC2)cc1Cl (stereo partly drawn) [Compound 232]
- inhibition at 0.1 µM (androgen receptor (AR) [1]): > 80%

SMILES: N#Cc1ccc(O[C@H]2CC[C@H](NC(=O)c3ccc(N4CCC(NC5CCN(c6ccc7c(c6)C(=O)N(C6CCC(=O)NC6=O)C7=O)CC5)CC4)nn3)CC2)cc1Cl (stereo partly drawn) [Compound 118, N-((1r,4r)-4-(3-chloro-4-cyanophenoxy)cyclohexyl)-6-(4-((1-(2-(2,6-dioxopiperidin-3-yl)-1,3-dioxoisoindolin-5-yl)piperidine-4-yl)amino)piperidin-1-yl)pyridazine-3-amide]
- inhibition at 0.1 µM (androgen receptor (AR) [1]): 25 to 49%

SMILES: N#Cc1ccc(O[C@H]2CC[C@H](NC(=O)c3cnc(N4CCC(CN5CCC(Nc6cc7c(cc6F)C(=O)N(C6CCC(=O)NC6=O)C7=O)CC5)CC4)cn3)CC2)cc1Cl (stereo partly drawn) [Compound 145]
- inhibition at 0.1 µM (androgen receptor (AR) [1]): > 80%

SMILES: N#Cc1ccc(O[C@H]2CC[C@H](NC(=O)c3ccc(N4CCC(N5CCC6(CCN(c7cc8c(cc7F)C(=O)N(C7CCC(=O)NC7=O)C8=O)C6)C5)CC4)nn3)CC2)cc1Cl (stereo partly drawn) [Compound 164, N-((1r,4r)-4-(3-chloro-4-cyanophenoxy)cyclohexyl)-6-(4-(7-(2-(2,6-dioxopiperidin-3-yl)-6-fluoro-1,3-dioxoisoindol-5-yl)-2,7-diazaspiro[4.4]nonan-2-yl)piperidin-1-yl)pyridazine-3-formamide]
- inhibition at 0.1 µM (androgen receptor (AR) [1]): > 80%

SMILES: CC1(C)C(NC(=O)c2ccc(N3C[C@@H]4C(CN5CCN(c6cc7c(cc6F)C(=O)N(C6CCC(=O)NC6=O)C7=O)CC5)[C@@H]4C3)nn2)C(C)(C)C1Oc1ccc(C#N)c(Cl)c1 (stereo partly drawn) [Compound 181, N-((1r,3R)-3-(3-chloro-4-cyanophenoxy)-2,2,4,4-tetramethylcyclobutyl)-6-((1R,5S,6S)-6-((4-(2-(2,6-dioxopiperidin-3-yl)-6-fluoro-1,3-dioxoisoindolin-5-yl)piperazin-1-yl)methyl)-3-azabicyclo[3.1.0]hexan-3-yl)pyridazine-3-formamide]
- % degradation (androgen receptor (AR) [1]): B (79%-50%)

SMILES: N#Cc1ccc(O[C@H]2CC[C@H](NC(=O)c3ccc(N4CCC(NC5CCN(c6ccc7c(c6)C(=O)N(C6CCC(=O)NC6=O)C7=O)CC5)CC4)cc3)CC2)cc1Cl (stereo partly drawn) [Compound 302, N-((1r,4r)-4-(3-chloro-4-cyanophenoxy)cyclohexyl)-4-(4-((1-(2-(2,6-dioxopiperidin-3-yl)-1,3-dioxoisoindolin-5-yl)piperidine-4-yl)amino)piperidin-1-yl)benzamide]
- inhibition at 0.1 µM (androgen receptor (AR) [1]): < 25%

SMILES: N#Cc1ccc(O[C@H]2CC[C@H](NC(=O)c3cnc(N4CCC5(CCN(CC6CCN(c7cc8c(cc7F)C(=O)N(C7CCC(=O)NC7=O)C8=O)CC6)C5)C4)cn3)CC2)cc1Cl (stereo partly drawn) [Compound 163]
- inhibition at 0.1 µM (androgen receptor (AR) [1]): > 80%

SMILES: N#Cc1ccc(O[C@H]2CC[C@H](NC(=O)c3ccc(N4CCN(C[C@@H]5[C@H]6CN(c7ccc8c(c7)C(=O)N(C7CCC(=O)NC7=O)C8=O)C[C@@H]56)CC4)nn3)CC2)cc1Cl (stereo partly drawn) [Compound 102]
- inhibition at 0.1 µM (androgen receptor (AR) [1]): 50 to 79%

SMILES: N#Cc1ccc(O[C@H]2CC[C@H](N3Cc4nc(C#CC5CCN(C6CCN(c7cc8c(cc7F)C(=O)N(C7CCC(=O)NC7=O)C8=O)CC6)CC5)ccc4C3=O)CC2)cc1Cl (stereo partly drawn) [Compound 324, 2-Chloro-4-((1r,4r)-4-(2-((1′-(2,6-dioxopiperidin-3-yl)-6-fluoro-1,3-dioxoisoindolin-5-yl)-1,4′-dipiperidine-4-yl)ethynyl)-5-oxo-5H-pyrrolo[3,4-b]pyridin-6(7H)-cyclohexaneoxy)benzonitrile]
- inhibition at 0.1 µM (androgen receptor (AR) [1]): 25 to 49%

SMILES: N#Cc1ccc(O[C@H]2CC[C@H](NC(=O)c3cnc(N4CC5(CCN(C6CCN(c7cc8c(cc7F)C(=O)N(C7CCC(=O)NC7=O)C8=O)CC6)CC5)C4)nc3)CC2)cc1Cl (stereo partly drawn) [Compound 273, N-((1r,4r)-4-(3-chloro-4-cyanophenoxy)cyclohexyl)-2-(7-(1-(2-(2,6-dioxopiperidin-3-yl)-6-fluoro-1,3-dioxoisoindolin-5-yl)piperidine-4-yl)-2,7-diazaspiro[3.5]nonan-2-yl)pyrimidine-5-carboxamide]
- DC50 (androgen receptor (AR) [2]; [3]): 10 to 100 nM
- Dmax (androgen receptor (AR) [2]): 60 to 80%

SMILES: N#Cc1ccc(O[C@H]2CC[C@H](NC(=O)c3ccc(N4CCC(CN5CCC(Oc6ccc7c(c6)C(=O)N(C6CCC(=O)NC6=O)C7=O)CC5)CC4)nn3)CC2)cc1Cl (stereo partly drawn) [Compound 147]
- DC50 (androgen receptor (AR) [2]; [3]): 10 to 100 nM
- Dmax (androgen receptor (AR) [2]; [4]): 60 to 80%

SMILES: N#Cc1ccc(OC2CCC(NC(=O)c3cnc(N4CCN(CC5[C@H]6CN(c7cc8c(cc7F)C(=O)N(C7CCC(=O)NC7=O)C8=O)C[C@@H]56)CC4)cn3)CC2)cc1C(F)(F)F (stereo partly drawn) [Compound 94]
- Dmax (%) (androgen receptor (AR) [2]): +++ (key: ++++: >80%; +++: 80%-60%; ++: 60%-40%; +: <40%)
- DC50 (androgen receptor (AR) [2]; read-out: DC50): 10 to 100 nM

SMILES: CC1(C)[C@H](Oc2ccc(C#N)c(Cl)c2)C(C)(C)[C@H]1N1Cc2nc(C#CC3CCC(N4CC5CC4CN5c4cc5c(cc4F)C(=O)N(C4CCC(=O)NC4=O)C5=O)CC3)ccc2C1=O (stereo partly drawn) [Compound 343]
- DC50 (androgen receptor (AR) [2]; [3]): > 300 nM
- Dmax (androgen receptor (AR) [2]; [4]): 40 to 60%

SMILES: CC1(C)[C@H](Oc2ccc(C#N)c(Cl)c2)C(C)(C)[C@H]1N1Cc2nc(N3CCC(CN4CCN(c5cc6c(cc5F)C(=O)N(C5CCC(=O)NC5=O)C6=O)CC4)CC3)cnc2C1=O (stereo partly drawn) [Compound 384]
- DC50 (androgen receptor (AR) [2]; [3]): < 10 nM
- Dmax (androgen receptor (AR) [2]; [4]): 60 to 80%

SMILES: N#Cc1ccc(O[C@H]2CC[C@H](NC(=O)c3ccc(N4CCC5(CC4)CC(N4CCN(c6cc7c(cc6F)C(=O)N(C6CCC(=O)NC6=O)C7=O)CC4)C5)nn3)CC2)cc1Cl (stereo partly drawn) [Compound 269]
- DC50 (androgen receptor (AR) [2]; [3]): < 10 nM
- Dmax (androgen receptor (AR) [2]; [4]): > 80%

SMILES: COCCOc1cc(O[C@H]2CC[C@H](NC(=O)c3ccc(N4CCC(CN5CCC6(CC5)CN(c5ccc7c(c5)C(=O)N(C5CCC(=O)NC5=O)C7=O)C6)CC4)nn3)CC2)ccc1C#N (stereo partly drawn) [Compound 155]
- DC50 (androgen receptor (AR) [2]): < 10 nM
- Dmax (androgen receptor (AR) [2]): > 80%

SMILES: N#Cc1ccc(O[C@H]2CC[C@H](NC(=O)c3ccc(N4CCC(CN5CCC6(CC5)CN(c5ccc7c(c5)C(=O)N(C5CCC(=O)NC5=O)C7=O)C6)CC4)nn3)CC2)cc1 (stereo partly drawn) [Compound 131, N-((1r,4r)-4-(4-cyanophenoxy)cyclohexyl)-6-(4-((2-(2-(2,6-dioxopiperidin-3-yl)-1,3-dioxoisoindolin-5-yl)-2,7-diazaspiro[3.5]nonan-7-yl)methyl)piperidin-1-yl)pyridazine-3-carboxamide]
- DC50 (androgen receptor (AR) [2]): 10 to 100 nM
- Dmax (androgen receptor (AR) [2]): 60 to 80%

SMILES: N#Cc1ccc(O[C@H]2CC[C@H](NC(=O)c3ccc(N4C[C@H]5CC[C@@H](C4)N5C[C@H]4[C@@H]5CN(c6cc7c(cc6F)C(=O)N(C6CCC(=O)NC6=O)C7=O)C[C@@H]54)nn3)CC2)cc1Cl (stereo partly drawn) [Compound 239]
- DC50 (androgen receptor (AR) [2]): 10 to 100 nM
- Dmax (androgen receptor (AR) [2]): 60 to 80%

SMILES: N#Cc1ccc(O[C@H]2CC[C@H](NC(=O)c3ccc(N4CC5(CCN(C6CCN(c7cc8c(cc7F)C(=O)N(C7CCC(=O)NC7=O)C8=O)CC6)CC5)C4)nn3)CC2)cc1Cl (stereo partly drawn) [Compound 97, N-((1r,4r)-4-(3-chloro-4-cyanophenoxy)cyclohexyl)-6-(7-(1-(2-(2,6-dioxopiperidin-3-yl)-6-fluoro-1,3-dioxoisoindolin-5-yl)piperidine-4-yl)-2,7-diazaspiro[3.5]nonan-2-yl)pyridazine-3-carboxamide]
- DC50 (androgen receptor (AR) [2]; [3]): < 10 nM
- Dmax (androgen receptor (AR) [2]): > 80%
